Test [1] relates to differentiated THP-1 cells. Briefly: THP-1 phagocytosis assay (pHrodo E. coli BioParticles), wild-type cells. Type of test: cell-based, human. To be noted: co-treatment, all treatment groups, in words. The source says: (§1) Having shown that P22 binds specifically to the sialic acid-binding site of this domain we now have a chemical tool to answer the question of whether the sialic acid-binding site is the appropriate target for small molecule ligands that might promote Aβ uptake. Siglecs preferentially recognize multivalent presentation of their ligands ([Rillahan et al., 2014], [Büll et al., 2016]), and for this reason we conjugated the biotinylated form of P22 to microparticles labeled with both FITC and streptavidin (P22 microparticles) (see Transparent Methods). More than 60% CD33-transfected BV2 cells were positive for P22 microparticles compared with only 30% cells that were only incubated with control particles (unconjugated to P22) (Figure 4A). […]
(§2) Figure 4 Effect of P22 on Phagocytosis The cells were treated with P22 conjugated to microparticles labeled with both streptavidin and fluorescein isothiocyanate (FITC), or with microparticles without P22 conjugated as control. […] (C) Quantification of phagocytic differentiated human THP-1 cells after incubation with P22 monomer, P22 conjugated microparticles, or microparticles without P22 conjugation. […]
THP-1 cells (control and CD33KO) were differentiated in growth media (RPMI 1640, 10% FCS) supplemented with 100 ng/mL PMA for 3 days. […] Differentiated cells were then lifted, counted and 75,000 cells/well were plated in a 96 well plate. […]

The test system of test [2] is human CD33-transfected BV2 cells. Put plainly: Aβ42 phagocytosis assay (Aβ42 pHrodo uptake). The class given is cell-based, murine. To be noted: cells pre-treated with millimolar concentration of the ligand, in words.
Source text: as §1, with “4A). Although some P22 microparticles also bind to non-transfected cells, the difference remains significant for the cells transfected with CD33. This led us to believe that the compound bound preferentially to CD33 (Figure 4A).” for “4A).”
as §2

In a further test the test system is CD33. Also noted: method as in Blixt et al., 2003. To be noted: order of magnitude in words; ref Blixt et al., 2003; cited from earlier work.

As for `C=C1[C@@H](C)[C@H]2[C@H](Cc3ccccc3)NC(=O)[C@]23[C@H](OC(C)=O)/C=C/[C@@](C)(O)C(=O)[C@@H](C)C/C=C/[C@H]3[C@@H]1O` [cytochalasin D], the “effect of co-treatment on phagocytosis” value in test [1] is given as “blocked phagocytosis”.
As to `CC(=O)N[C@H]1[C@H]([C@H](O)[C@H](O)CO)O[C@@](O[C@H]2[C@@H](O)[C@@H](CO)O[C@@H](O[C@H]3[C@H](O)[C@@H](O)C(O)O[C@@H]3CO)[C@@H]2O)(C(=O)O)C[C@@H]1O` (stereo partly drawn) [3′-sialyllactose], in test [2], the effect on phagocytosis result is on record as “no difference”. The “affinity for CD33” value in the test on CD33 was “millimolar”.

(Values after article PMC6669322, “Small Molecule Binding to Alzheimer Risk Factor CD33 Promotes Aβ Phagocytosis” (iScience, 2019).)
